This is an account of results in patent US20100010219A1, “METHOD FOR PRODUCING PYRROLIDINE COMPOUND” (JAPAN TOBACCO INC., priority 2006, published 2010).

Where a name gives a salt, the structure may show the parent alone. A value given as a limit tells only on which side of the number the result lay.

For this assay, the target named is T1, human HSD-1 (recombinant HSD-1) (Homo sapiens, UniProt P28845).
T1 construct: made in house
T1 sequence (P28845 whole entry): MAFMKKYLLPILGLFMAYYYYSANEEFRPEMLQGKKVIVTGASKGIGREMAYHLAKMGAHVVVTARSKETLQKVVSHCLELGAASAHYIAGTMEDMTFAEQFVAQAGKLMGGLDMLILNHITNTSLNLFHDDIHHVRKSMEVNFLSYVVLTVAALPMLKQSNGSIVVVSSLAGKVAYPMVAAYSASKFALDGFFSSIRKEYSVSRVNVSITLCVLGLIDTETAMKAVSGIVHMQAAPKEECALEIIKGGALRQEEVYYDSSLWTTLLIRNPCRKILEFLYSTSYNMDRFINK
Put plainly: HSD-1 activity inhibitory action in vitro (SPA, conversion of cortisone to cortisol). It is filed as biochemical. The following applies: recombinant human HSD-1 expressed using baculovirus system; 10 nM 3H cortisone, 500 μM NADPH; room temperature 90 to 120 min; read-out: hHSD1 (IC50 (nM)).
The term IC50 denotes the point on the concentration scale where inhibition reaches its midpoint. As to `COCC1(c2ccccc2)CCN(C(=O)c2cnn(C3CCN(c4ccc(Cl)cn4)CC3)c2C2(C)CC2)C1` (stereo not shown) [Example 174, 1-{1-[1-(5-chloropyridin-2-yl)piperidin-4-yl]-5-(1-methylcyclopropyl)-1H-pyrazole-4-carbonyl}-3-methoxymethyl-3-phenylpyrrolidine], the IC50 is less than 30 nM.

Consider `CC1(c2c(C(=O)N3CCC(c4cccnc4)C3)cnn2C2CCN(C(=O)N3CCOc4ccccc43)CC2)CC1` (stereo not shown) [Example 149], for which the IC50 is less than 30 nM.

Take `CC(C)(C(N)=O)N1CCC(n2ncc(C(=O)N3CC[C@@H](c4ccccc4C(F)(F)F)C3)c2C2CC2)CC1` [Example 96, 1-{1-[1-(1-carbamoyl-1-methylethyl)piperidin-4-yl]-5-cyclopropyl-1H-pyrazole-4-carbonyl}-[(S)-3-(2-trifluoromethylphenyl)]pyrrolidine hydrochloride]: the IC50 was less than 30 nM.

On to `O=C(N[C@H](CO)Cc1ccccc1)N1CCC(n2ncc(C(=O)N3CC[C@@H](c4ccccc4C(F)(F)F)C3)c2C2CC2)CC1` [Example 50, 1-(1-{1-[(S)-1-benzyl-2-hydroxyethylcarbamoyl]piperidin-4-yl}-5-cyclopropyl-1H-pyrazole-4-carbonyl)-[(S)-3-(2-trifluoromethylphenyl)]pyrrolidine], for which the IC50 was less than 30 nM.

On to `NC(=O)N1CCC(n2ncc(C(=O)N3CC[C@@H](c4ccccc4C(F)(F)F)C3)c2C2CC2)CC1` [Example 4, 1-[1-(1-carbamoylpiperidin-4-yl)-5-cyclopropyl-1H-pyrazole-4-carbonyl]-[(S)-3-(2-trifluoromethylphenyl)]pyrrolidine], for which the IC50 is less than 30 nM.

With `CS(=O)(=O)Nc1ccc(N2CCC(n3ncc(C(=O)N4CCC(c5ccccc5C(F)(F)F)C4)c3C3CC3)CC2)cc1` (stereo not shown) [Example 171, 1-{5-cyclopropyl-1-[1-(4-methanesulfonylaminophenyl)piperidin-4-yl]-1H-pyrazole-4-carbonyl}-3-(2-trifluoromethylphenyl)pyrrolidine], the IC50 was less than 30 nM.

As for `O=C(Nc1nccs1)N1CCC(n2ncc(C(=O)N3CCC(c4ccccc4C(F)(F)F)C3)c2C2CC2)CC1` (stereo not shown) [Example 145, 1-{5-cyclopropyl-1-[1-(thiazol-2-ylcarbamoyl)piperidin-4-yl]-1H-pyrazole-4-carbonyl}-3-(2-trifluoromethylphenyl)pyrrolidine], the IC50 was less than 30 nM.

For the compound `COC(=O)c1ccccc1C1CCN(C(=O)c2cnn(C3CCN(c4ncccn4)CC3)c2C2(C)CC2)C1` (stereo not shown) [Example 179, methyl 2-{1-[5-(1-methylcyclopropyl)-1-(1-pyrimidin-2-ylpiperidin-4-yl)-1H-pyrazole-4-carbonyl]pyrrolidin-3-yl}benzoate], the IC50 was less than 30 nM.

As for `CNCC(=O)N1CCC(n2ncc(C(=O)N3CC[C@@H](c4ccccc4C(F)(F)F)C3)c2C2CC2)CC1` [Example 85, 1-{5-cyclopropyl-1-[1-(2-methylaminoacetyl)piperidin-4-yl]-1H-pyrazole-4-carbonyl}-[(S)-3-(2-trifluoromethylphenyl)]pyrrolidine hydrochloride], the IC50 is less than 30 nM.

In the case of `O=C(O)c1cccc(N2CCC(n3ncc(C(=O)N4CCC(c5ccccc5C(F)(F)F)C4)c3C3CC3)CC2)c1` (stereo not shown) [Example 114, 3-(4-{5-cyclopropyl-4-[3-(2-trifluoromethylphenyl)pyrrolidine-1-carbonyl]pyrazol-1-yl}piperidin-1-yl)benzoic acid], the IC50 is less than 30 nM.

With `O=C(c1ccccc1Cl)N1CCC(n2ncc(C(=O)N3CCC(c4cccnc4)C3)c2C2CC2)CC1` (stereo not shown) [Example 157, 1-{1-[1-(2-chlorobenzoyl)piperidin-4-yl]-5-cyclopropyl-1H-pyrazole-4-carbonyl}-3-(pyridin-3-yl)pyrrolidine], the IC50 was less than 30 nM.

As to `CC(C)(N)C(=O)N1CCC(n2ncc(C(=O)N3CC[C@@H](c4ccccc4C(F)(F)F)C3)c2C2CC2)CC1` [Example 79, 1-{1-[1-(2-amino-2-methylpropionyl)piperidin-4-yl]-5-cyclopropyl-1H-pyrazole-4-carbonyl}-[(S)-3-(2-trifluoromethylphenyl)]pyrrolidine hydrochloride], the IC50 is less than 30 nM.

For the compound `O=C(c1cnn(C2CCN(C(=O)N3CC(O)C3)CC2)c1C1CC1)N1CC[C@@H](c2ccccc2C(F)(F)F)C1` [Example 20, 1-{5-cyclopropyl-1-[1-(3-hydroxyazetidine-1-carbonyl)piperidin-4-yl]-1H-pyrazole-4-carbonyl}-[(S)-3-(2-trifluoromethylphenyl)]pyrrolidine], the IC50 was less than 30 nM.

Regarding `NC(=O)c1ccc(N2CCC(n3ncc(C(=O)N4CCC(c5ccccc5C(F)(F)F)C4)c3C3CC3)CC2)cc1` (stereo not shown) [Example 165, 1-{1-[1-(4-carbamoylphenyl)piperidin-4-yl]-5-cyclopropyl-1H-pyrazole-4-carbonyl}-3-(2-trifluoromethylphenyl)pyrrolidine], the IC50 is less than 30 nM.

Take `O=C(O)c1csc(N2CCC(n3ncc(C(=O)N4CCC(c5ccccc5C(F)(F)F)C4)c3C3CC3)CC2)n1` (stereo not shown) [Example 116, 2-(4-{5-cyclopropyl-4-[3-(2-trifluoromethylphenyl)pyrrolidine-1-carbonyl]pyrazol-1-yl}piperidin-1-yl)thiazole-4-carboxylic acid]: the IC50 was less than 30 nM.

As to `O=C(c1cnn(C2CCN(C(=O)N3CC[C@H](O)C3)CC2)c1C1CC1)N1CC[C@@H](c2ccccc2C(F)(F)F)C1` [Example 22, 1-(5-cyclopropyl-1-{1-[(S)-3-hydroxypyrrolidine-1-carbonyl]piperidin-4-yl}-1H-pyrazole-4-carbonyl)-[(S)-3-(2-trifluoromethylphenyl)]pyrrolidine], the half-maximal inhibitory concentration (IC50) was less than 30 nM.

Consider `O=C(Nc1ccccc1F)N1CCC(n2ncc(C(=O)N3CCC(c4cccnc4)C3)c2C2CC2)CC1` (stereo not shown) [Example 3, 1-{5-cyclopropyl-1-[1-(2-fluorophenylcarbamoyl)piperidin-4-yl]-1H-pyrazole-4-carbonyl}-3-(pyridin-3-yl)pyrrolidine], for which the IC50 was less than 30 nM.

As for `O=C(CC(F)(F)F)N1CCC(n2ncc(C(=O)N3CC[C@@H](c4ccccc4C(F)(F)F)C3)c2C2CC2)CC1` [Example 73, 1-{5-cyclopropyl-1-[1-(3,3,3-trifluoropropionyl)piperidin-4-yl]-1H-pyrazole-4-carbonyl}-[(S)-3-(2-trifluoromethylphenyl)]pyrrolidine], the IC50 is less than 30 nM.

Regarding `O=C(c1cnn(C2CCN(c3ccc(CO)cc3)CC2)c1C1CC1)N1CCC(c2ccccc2C(F)(F)F)C1` (stereo not shown) [Example 166, 1-{5-cyclopropyl-1-[1-(4-hydroxymethylphenyl)piperidin-4-yl]-1H-pyrazole-4-carbonyl}-3-(2-trifluoromethylphenyl)pyrrolidine], the concentration for half-maximal inhibition (IC50) was less than 30 nM.

With `O=C(COc1ccccc1)N1CCC(n2ncc(C(=O)N3CCC(c4cccnc4)C3)c2C2CC2)CC1` (stereo not shown) [Example 155, 1-{5-cyclopropyl-1-[1-(2-phenoxyacetyl)piperidin-4-yl]-1H-pyrazole-4-carbonyl}-3-(pyridin-3-yl)pyrrolidine], the IC50 was less than 30 nM.

On to `CC(C)(CN1CCC(n2ncc(C(=O)N3CC[C@@H](c4ccccc4C(F)(F)F)C3)c2C2CC2)CC1)C(N)=O` [Example 105, 1-{1-[1-(2-carbamoyl-2-methylpropyl)piperidin-4-yl]-5-cyclopropyl-1H-pyrazole-4-carbonyl}-[(S)-3-(2-trifluoromethylphenyl)]pyrrolidine hydrochloride], for which the IC50 is less than 30 nM.

Consider `CC(C)ONC(=O)N1CCC(n2ncc(C(=O)N3CCC(c4ccccc4C(F)(F)F)C3)c2C2(C)CC2)CC1` (stereo not shown) [Example 146, 1-{1-[1-(isopropoxycarbamoyl)piperidin-4-yl]-5-(1-methylcyclopropyl)-1H-pyrazole-4-carbonyl}-3-(2-trifluoromethylphenyl)pyrrolidine], for which the IC50 is less than 30 nM.

Regarding `CC(=O)Nc1ccc(N2CCC(n3ncc(C(=O)N4CCC(c5ccccc5C(F)(F)F)C4)c3C3CC3)CC2)cc1` (stereo not shown) [Example 182, 1-{1-[1-(4-acetylaminophenyl)piperidin-4-yl]-5-cyclopropyl-1H-pyrazole-4-carbonyl}-3-(2-trifluoromethylphenyl)pyrrolidine], the IC50 is less than 30 nM.

`CNC(=O)CN1CCC(n2ncc(C(=O)N3CC[C@@H](c4ccccc4C(F)(F)F)C3)c2C2CC2)CC1` [Example 95, 1-[5-cyclopropyl-1-(1-methylcarbamoylmethylpiperidin-4-yl)-1H-pyrazole-4-carbonyl]-[(S)-3-(2-trifluoromethylphenyl)]pyrrolidine hydrochloride]: the IC50 was less than 30 nM.

For `O=C(c1cnn(C2CCN(C(=O)N3CCC3)CC2)c1C1CC1)N1CC[C@@H](c2ccccc2C(F)(F)F)C1` [Example 15, 1-{1-[1-(azetidine-1-carbonyl)piperidin-4-yl]-5-cyclopropyl-1H-pyrazole-4-carbonyl}-[(S)-3-(2-trifluoromethylphenyl)]pyrrolidine], the IC50 was less than 30 nM.

For the compound `O=C(c1cnn(C2CCN(c3ccc(N4CCOC4=O)cc3)CC2)c1C1CC1)N1CCC(c2ccccc2C(F)(F)F)C1` (stereo not shown) [Example 169, 1-(5-cyclopropyl-1-{1-[4-(2-oxooxazolidin-3-yl)phenyl]piperidin-4-yl}-1H-pyrazole-4-carbonyl)-3-(2-trifluoromethylphenyl)pyrrolidine], the IC50 was less than 30 nM.

With `O=C(Nc1ccc(F)cc1F)N1CCC(n2ncc(C(=O)N3CCC(c4ccccc4Cl)C3)c2C2CC2)CC1` (stereo not shown) [Example 136, 3-(2-chlorophenyl)-1-{5-cyclopropyl-1-[1-(2,4-difluorophenylcarbamoyl)piperidin-4-yl]-1H-pyrazole-4-carbonyl}pyrrolidine], the IC50 was less than 30 nM.

As to `O=C(c1cnn([C@H]2CC[C@H](c3nnn[nH]3)CC2)c1C1CC1)N1CC[C@@H](c2ccccc2C(F)(F)F)C1` [Example 132, 1-{5-cyclopropyl-1-[trans-4-(1H-tetrazol-5-yl)cyclohexyl]-1H-pyrazole-4-carbonyl}-[(S)-3-(2-trifluoromethylphenyl)]pyrrolidine], the half-inhibitory concentration (IC50) was less than 30 nM.
